We go through one molecule from US20210113522A1, “COUMARIN DERIVATIVE AS ANTI-ASTHMATIC AGENT, PHARMACEUTICAL COMPOSITION THEREOF, ITS PREPARATION AND USE” (I-NOVA MEDICINSKA ISTRAZIVANJA D.O.O., priority 2017, published 2021).

The assay relates to croton oil-induced ear edema. The experiment in a line: Croton oil-induced ear edema in mice. Format: in vivo, Balb/c mice. The settings on record: dexamethasone 1 mg/kg, 1 2 mg/kg. From the text:
The presents study aims to detect the inflammatory/anti-inflammatory potential effects of compound 1 in a model of acute skin inflammation induced by local application of phlogistic agent croton oil in Balb/c mice. The technique for croton oil-induced ear edema in mice, originally described by Tubaro et al., was followed, with modifications; see literature references 16 and 17: • 16) A. Tubaro, P. Dri, G. Delbello, C. Zilli, R. Della Loggia: The croton oil ear test revisited, Agents Actions 17 (1986) 347-349. • 17) G. Coruzzi, C. Pozzoli, M. Adami, D. Grandi, N. Guido, R. Smits, I. de Esch and R. Leurs: Strain-dependent effects of the histamine H4 receptor antagonist JNJ7777120 in a murine model of acute skin inflammation, Experimental Dermatology 21 (2011) 32-37.
Mice (total 40) were separated into 4 groups (n=10). Each group was treated under different regimen:
Cutaneous inflammation was induced in conscious mice by topical application of croton oil (5% in acetone).
Six hours after croton oil application, mice were euthanized by light ether anaesthesia, followed by cervical dislocation; both left (acetone) and right (croton oil in acetone) ears were removed, by cutting horizontally across the indentation at the base of the ear. For each mouse, the extent of the oedema was expressed as the difference in weight (Δ [mg]) between right (inflamed) and left (uninflamed) ear. The percentage increase in the oedema of the treated ear was calculated by the following formula: […]
The presents study aims to detect the inflammatory/anti-inflammatory potential effects of compound 1 in a model of acute skin inflammation induced by local application of phlogistic agent croton oil in Balb/c mice. The technique for croton oil-induced ear edema in mice, originally described by Tubaro et al., was followed, with modifications; see literature references 16 and 17.
In preliminary experiments, the effect of subcutaneous (s.c.) administration of saline, 100% DMSO or 20% 2-hydroxypropyl-β-cyclodextrin was investigated to check the vehicle effects on ear inflammation.
The statistical significance between the groups was assessed by one-way analysis of variance (ANOVA) followed by a post hoc Tukey test. The accepted level of significance for the test was P<0.05. All tests were carried out using GraphPad Software (San Diego, Calif., USA).

With `O=c1oc2cc(O)cc(O)c2c(O)c1-c1coc2c1c(=O)oc1cc(O)cc(O)c12` [Compound 1, 7,9-dihydroxy-3-(4,5,7-trihydroxy-2-oxo-2H-chromene-3-yl)-4H-furo[3,2-c]chromen-4-one], for the setting “6 h after croton oil”, the “Ear edema Δm (right minus left ear)” value was found to be 0.0321 g and the “Percentage of increasing the ear edema” value came to 92.98%. Also, under “Balb/c mice, 6 h”, the “Maximal inhibition of croton oil-induced ear oedema” value was roughly 40%. Besides, the Left ear m (left ear: 80% 2HPβCD + 20% DMSO (uninflamed), 6 h) is given as 0.0344 g. Besides, the Right ear m (right ear: substance + croton oil after 30 min, 6 h) was determined as 0.0665 g.
